Measurements taken from PubChem BioAssay (NCI).
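GI50: concentration for 50% inhibition of growth. Definition used: TGI = concentration required for complete inhibition of growth.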

How the values were obtained:
Experiment in all cases: growth of human tumour cells (NCI), 384-well format
786-0 renal = tested on: 786-0 renal
ACHN renal = tested on: ACHN renal
CAKI-1 renal = tested on: CAKI-1 renal
COLO 205 colon = tested on: COLO 205 colon
HCC-2998 colon = tested on: HCC-2998 colon
HOP-62 NSCLC = tested on: HOP-62 NSCLC
HOP-92 NSCLC = tested on: HOP-92 NSCLC
HS 578T breast = tested on: HS 578T breast
HT29 colon = tested on: HT29 colon
IGROV1 ovarian = tested on: IGROV1 ovarian
KM12 colon = tested on: KM12 colon
LOX IMVI melanoma = tested on: LOX IMVI melanoma
M14 melanoma = tested on: M14 melanoma
MALME-3M melanoma = tested on: MALME-3M melanoma
MCF7 breast = tested on: MCF7 breast
MDA-MB-231 breast = tested on: MDA-MB-231 breast
MOLT-4 leukemia = tested on: MOLT-4 leukemia
NCI-H23 lung = tested on: NCI-H23 lung
NCI-H322M lung = tested on: NCI-H322M lung
NCI/ADR-RES ovarian = tested on: NCI/ADR-RES ovarian
OVCAR-4 ovarian = tested on: OVCAR-4 ovarian
OVCAR-5 ovarian = tested on: OVCAR-5 ovarian
OVCAR-8 ovarian = tested on: OVCAR-8 ovarian
RXF 393 renal = tested on: RXF 393 renal
SF-268 CNS = tested on: SF-268 CNS
SF-295 CNS = tested on: SF-295 CNS
SK-MEL-28 melanoma = tested on: SK-MEL-28 melanoma
SNB-75 CNS = tested on: SNB-75 CNS
SW-620 colon = tested on: SW-620 colon
TK-10 renal = tested on: TK-10 renal
UACC-62 melanoma = tested on: UACC-62 melanoma
UO-31 renal = tested on: UO-31 renal

Cc1ccc(C(=O)Nc2ccc(Oc3cc4cnn(C)c4cc3-c3cn[nH]c3)c(F)c2)c(=O)n1-c1ccc(F)cc1
GI50 (786-0 renal): > 100 µM | TGI (786-0 renal): > 100 µM | GI50 (ACHN renal): 6.44 µM | TGI (ACHN renal): > 100 µM | GI50 (CAKI-1 renal): 5.86 µM | TGI (CAKI-1 renal): > 100 µM | GI50 (COLO 205 colon): 4.91 µM | TGI (COLO 205 colon): > 100 µM | GI50 (HCC-2998 colon): > 100 µM | TGI (HCC-2998 colon): > 100 µM | GI50 (HOP-62 NSCLC): 3.81 µM | TGI (HOP-62 NSCLC): > 100 µM | GI50 (HOP-92 NSCLC): > 100 µM | TGI (HOP-92 NSCLC): > 100 µM | GI50 (HS 578T breast): 10.6 µM | TGI (HS 578T breast): > 100 µM | GI50 (HT29 colon): 3.03 µM | TGI (HT29 colon): > 100 µM | GI50 (IGROV1 ovarian): 5.27 µM | TGI (IGROV1 ovarian): > 100 µM | GI50 (KM12 colon): 16.5 nM | TGI (KM12 colon): > 100 µM | GI50 (LOX IMVI melanoma): 4.05 µM | TGI (LOX IMVI melanoma): > 100 µM | GI50 (M14 melanoma): 2560 nM | TGI (M14 melanoma): > 100 µM | GI50 (MALME-3M melanoma): 5.29 µM | TGI (MALME-3M melanoma): > 100 µM | GI50 (MCF7 breast): 5.56 µM | TGI (MCF7 breast): > 100 µM | GI50 (MDA-MB-231 breast): > 100 µM | TGI (MDA-MB-231 breast): > 100 µM | GI50 (MOLT-4 leukemia): 1080 nM | TGI (MOLT-4 leukemia): 19.8 µM | GI50 (NCI-H23 lung): 10.4 µM | TGI (NCI-H23 lung): > 100 µM | GI50 (NCI-H322M lung): > 100 µM | TGI (NCI-H322M lung): > 100 µM | GI50 (NCI/ADR-RES ovarian): > 100 µM | TGI (NCI/ADR-RES ovarian): > 100 µM | GI50 (OVCAR-4 ovarian): > 100 µM | TGI (OVCAR-4 ovarian): > 100 µM | GI50 (OVCAR-5 ovarian): > 100 µM | TGI (OVCAR-5 ovarian): > 100 µM | GI50 (OVCAR-8 ovarian): > 100 µM | TGI (OVCAR-8 ovarian): > 100 µM | GI50 (RXF 393 renal): 2570 nM | TGI (RXF 393 renal): > 100 µM | GI50 (SF-268 CNS): 698 nM | TGI (SF-268 CNS): 7.36 µM | GI50 (SF-295 CNS): 2370 nM | TGI (SF-295 CNS): > 100 µM | GI50 (SK-MEL-28 melanoma): 7.28 µM | TGI (SK-MEL-28 melanoma): > 100 µM | GI50 (SNB-75 CNS): 6.22 µM | TGI (SNB-75 CNS): > 100 µM | GI50 (SW-620 colon): > 100 µM | TGI (SW-620 colon): > 100 µM | GI50 (TK-10 renal): > 100 µM | TGI (TK-10 renal): > 100 µM | GI50 (UACC-62 melanoma): 2420 nM | TGI (UACC-62 melanoma): > 100 µM | GI50 (UO-31 renal): > 100 µM | TGI (UO-31 renal): > 100 µM
